One experiment has as its target T1, H3 receptors (Cavia porcellus, UniProt Q9JI35).
T1 construct: The source of the H3 receptors in this experiment was guinea pig brain; from tissue; host or cells: guinea pig brain membranes
Briefly: H3-Receptor Binding Assay (guinea pig brain membranes). As to conditions: HCl salt of the indicated compound, 3 nM [3H]R-α-methyl histamine or [3H]Nα-methyl histamine, read-out: H3 Ave Ki. On the procedure:
General Procedure for H3-Receptor Binding Assay
The source of the H3 receptors in this experiment was guinea pig brain. The animals weighed 400-600 g. The brain tissue was homogenized with a solution of 50 mM Tris, pH 7.5. The final concentration of tissue in the homogenization buffer was 10% w/v. The homogenates were centrifuged at 1,000×g for 10 min. in order to remove clumps of tissue and debris. The resulting supernatants were then centrifuged at 50,000×g for 20 min. in order to sediment the membranes, which were next washed three times in homogenization buffer (50,000×g for 20 min. each). The membranes were frozen and stored at −70° C. until needed.
All compounds to be tested were dissolved in DMSO and then diluted into the binding buffer (50 mM Tris, pH 7.5) such that the final concentration was 2 μg/ml with 0.1% DMSO. Membranes were then added (400 μg of protein) to the reaction tubes. The reaction was started by the addition of 3 nM [^3H]R-α-methyl histamine (8.8 Ci/mmol) or 3 nM [^3H]N^α-methyl histamine (80 Ci/mmol) and continued under incubation at 30° C. for 30 min. Bound ligand was separated from unbound ligand by filtration, and the amount of radioactive ligand bound to the membranes was quantitated by liquid scintillation spectrometry.

The target in another experiment is T2, Histamine H1 receptor (Rattus norvegicus, UniProt P31390).
T2 construct: The tissue source was male Sprague-Dawley rat brain; tissue Rockland Corporation, Gilbertsville, Pa; host or cells: male Sprague-Dawley rat brain membranes
Briefly: H1-Receptor Binding Assay (rat brain membranes, [3H]pyrilamine). The settings on record: HCl salt of the indicated compound, male Sprague-Dawley rat brain membranes, Cheng-Prusoff, read-out: H1 Ave Ki. From the text:
General Procedure for H1-Receptor Binding Assay
The procedure used was based on that disclosed in V. T. Tran, R. S. L. Chang, and S. hr. Snyder, “Histamine H1 receptors identified in mammalian brain membranes with [H-3]mepyramine”, Proc. Natl. Acad. Sci. U.S.A 75 (1978) 6290-6294.
I. Tissue Preparation Protocol for Histamine H1 Receptor Binding Assay
1. The tissue source was male Sprague-Dawley rat brain. These were purchased stripped and frozen (available from Rockland Corporation, Gilbertsville, Pa.). The buffer used was ice-cold 50 mM Tris-HCl, pH 7.5. (The pH was determined at 25° C.)
2. The brains were spread out on plastic wrap on the benchtop and allowed to thaw for 10-15 min. After this, everything was kept ice-cold.
3. Two brains were put in each 50 mL round bottom centrifuge tube and 25 mL of buffer was added. Then they were broken up with a Polytron (from Brinkmann Instruments, Westbury, N.Y.) equipped with a PT-10 tip at setting 6 for 30 sec.
4. The volume in the tube was brought up to 45 mL and mixed and the particulate material was centrifuged at 1000×g (3000 rpm, SS-34 rotor) for 10 min to remove nuclei and unbroken cells.
5. Pellets were discarded and the supernatants were centrifuged 10 min at 50,000×g (20,000 rpm, SS-34 rotor).
6. The high-speed pellets were resuspended in a volume of Tris buffer equal to the original (4 mL), the contents of all tubes were pooled, and a sample was taken for BCA protein assay. The material was aliquotted, 45 mL per round-bottom tube, and the resuspension was recentrifuged. The yield of protein was approximately 20 mg/brain, so there was about 40 mg of protein per tube.
7. Pellets were frozen at −80° C.
II. H1 Histamine Receptor Binding Assay
1. FDCL and comparative compounds for assay were independently solubilized at 1 mg/ml DMSO by vortexing, or if necessary by sonication. The first dilution, 100-fold, was made in 50 mM Tris-HCl, pH 7.5, at room temperature. The three or four subsequent ten-fold serial dilutions were made in 1% DMSO/50 mM Tris-HCl, pH 7.5. Drug solutions and assay plates were kept at room temperature during the course of the assay set up.
2. Test compounds were assayed at four or five concentrations: 1, 0.1, 0.01, 0.001, and 0.0001 μg/ml. Twenty μl of drug solution was pipeted into each of three wells.
3. [^3H]Pyrilamine was diluted approximately 2000-fold with ice-cold […] Tris-HCl, pH 7.5 (to a working concentration of 20-25 nM), and put on ice.
4. A frozen tissue pellet was thawed in a 25° C. water bath, resuspended in 50 mM Tris-HCl, pH 7.5, at 1.7-2 mg/ml by brief break-up on the Polytron, and put on ice.
5. Twenty μl of diluted [^3H]pyrilamine was added to each well.
6. One hundred fifty μl of tissue suspension was added to each well.
7. The top of the plate was covered and it was placed in a 25° C. shaking water bath (about 60 oscillations/min) for 30 min.
8. Samples were filtered on a Tomtec Mach 2 harvester (available from Tomtec Corporation, Orange, Conn.) through a GF/B filter mat (from Wallac, Inc., Gaithersburg, Md.) presoaked in 0.3% polyethylenimine. Each sample was thrice washed with ice-cold 50 mM Tris-HCl, pH 7.5 dried 20 sec on the Tomtec, and dried 3-4 min in a microwave oven on a paper towel. The filter was impregnated with MELTILEX brand wax scintillant (from Wallac Corporation) and counted on a Betaplate scintillation counter (from Wallac Corporation).
9. Specific binding was determined as the difference between total and nonspecific binding. The percent inhibition in the presence of inhibitor or standard was determined using the formula:
[1-(sample binding-nonspecific binding)/specific binding]×100
For compounds that inhibit more than 50% at 1 μg/ml, an IC50 value was interpolated from proximate concentrations. […]

Molecules are shown by their SMILES.

T2 sequence (P31390 whole entry): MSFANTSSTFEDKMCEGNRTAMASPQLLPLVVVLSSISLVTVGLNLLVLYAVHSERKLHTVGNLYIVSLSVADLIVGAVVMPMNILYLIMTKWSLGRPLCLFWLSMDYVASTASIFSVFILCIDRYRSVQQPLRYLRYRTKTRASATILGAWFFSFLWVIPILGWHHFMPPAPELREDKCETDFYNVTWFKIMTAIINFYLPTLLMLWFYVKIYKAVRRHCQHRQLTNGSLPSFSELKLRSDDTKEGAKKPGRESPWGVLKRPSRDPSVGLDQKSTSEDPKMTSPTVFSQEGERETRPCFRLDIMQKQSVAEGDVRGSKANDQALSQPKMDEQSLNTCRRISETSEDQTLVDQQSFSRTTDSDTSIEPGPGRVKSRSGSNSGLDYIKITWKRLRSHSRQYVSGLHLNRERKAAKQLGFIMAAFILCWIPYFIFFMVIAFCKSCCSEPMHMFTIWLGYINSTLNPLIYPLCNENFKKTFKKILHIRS
T1 sequence (Q9JI35 whole entry): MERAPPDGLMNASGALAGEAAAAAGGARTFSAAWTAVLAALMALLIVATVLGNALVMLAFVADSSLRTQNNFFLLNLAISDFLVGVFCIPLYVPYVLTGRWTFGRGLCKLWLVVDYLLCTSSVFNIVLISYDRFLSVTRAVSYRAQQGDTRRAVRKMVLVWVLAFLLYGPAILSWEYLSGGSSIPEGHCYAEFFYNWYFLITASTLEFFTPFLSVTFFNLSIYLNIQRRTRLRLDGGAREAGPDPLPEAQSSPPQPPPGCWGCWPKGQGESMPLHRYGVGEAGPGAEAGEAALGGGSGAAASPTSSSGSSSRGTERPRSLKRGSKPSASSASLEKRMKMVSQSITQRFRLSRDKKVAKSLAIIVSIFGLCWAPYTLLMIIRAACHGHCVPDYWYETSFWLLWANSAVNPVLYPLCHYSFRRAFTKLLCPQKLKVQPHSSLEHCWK

For `Clc1ccc(C(CCNCCCc2c[nH]cn2)c2ccccn2)cc1` (stereo not shown), the Ki at H3 receptors amounted to 240 nM. `CN(CCCc1c[nH]cn1)CCC(c1ccc(Cl)cc1)c1ccccn1` (stereo not shown): the Ki on H3 receptors was 120 nM; on Histamine H1 receptor, 10 nM. Regarding `Clc1ccc(C(NCCCCc2c[nH]cn2)c2ccccc2)cc1` (stereo not shown), the Ki on H3 receptors stood at 6 nM. On the same count and under the same terms, the same measure for `O=C(CC(c1ccccc1)c1ccccc1)NCCCCc1c[nH]cn1`: 36 nM. On to `CN(CCCCc1c[nH]cn1)CCC(c1ccc(Cl)cc1)c1ccccn1` (stereo not shown), for which the Ki at H3 receptors was determined as 15 nM; at Histamine H1 receptor it was 7 nM.

Regarding `O=C(NCCCCc1c[nH]cn1)C(c1ccc(Cl)cc1)c1ccc(Cl)cc1`, the inhibitory constant (Ki) on H3 receptors amounted to 33.5 nM. As for `C[N+](C)(CCCCc1c[nH]cn1)CCC(c1ccc(Cl)cc1)c1ccccn1` (stereo not shown), the Ki at H3 receptors worked out at 160 nM; at Histamine H1 receptor, 120 nM. Consider `O=C(CCc1c[nH]cn1)NCCC(c1ccc(Cl)cc1)c1ccccn1` (stereo not shown), for which the Ki at H3 receptors turned out to be 510 nM. In the case of `N=C(CCCc1c[nH]cn1)NCCC(c1ccc(Cl)cc1)c1ccccn1` (stereo not shown), the figures for the inhibition constant (Ki) at H3 receptors and at Histamine H1 receptor were 29 nM and 201 nM, respectively. In the same order, the values of `Clc1ccc(C(CCNCCc2c[nH]cn2)c2ccccn2)cc1` (stereo not shown) are 56 nM and 600 nM. As to `N=C(CC(c1ccc(Cl)cc1)c1ccccn1)NCCc1c[nH]cn1` (stereo not shown), the Ki at H3 receptors came out at 8 nM.

On to `Clc1ccc(C(CCNCCCCc2c[nH]cn2)c2ccccn2)cc1` (stereo not shown), for which the inhibition constant (Ki) on H3 receptors is 10 nM; on Histamine H1 receptor, 254 nM. `CN(CCc1c[nH]cn1)C(=O)CC(c1ccc(Cl)cc1)c1ccccn1` (stereo not shown): at H3 receptors, the inhibitory constant (Ki) worked out at 1 nM.

Take `O=C(CC(c1ccc(Cl)cc1)c1ccccn1)NCCCCc1c[nH]cn1` (stereo not shown): the Ki at H3 receptors amounted to 0.8 nM. With `O=C(CC(c1ccc(Cl)cc1)c1cccc[n+]1[O-])NCCCCc1c[nH]cn1` (stereo not shown), the inhibition constant Ki on H3 receptors is 8.5 nM. Still for that read-out and setting: the same measure for `Clc1ccc(C(NCCCCc2c[nH]cn2)c2ccc(Cl)cc2)cc1`: 2 nM. Take `Clc1ccc(C(CCN(CCCCc2c[nH]cn2)CCCCc2c[nH]cn2)c2ccccn2)cc1` (stereo not shown): the values for the Ki on H3 receptors and at Histamine H1 receptor were 23 nM and 83.5 nM, respectively. `O=C(/C=C(\c1ccc(Cl)cc1)c1ccccn1)NCCc1c[nH]cn1`: the inhibition constant Ki at H3 receptors amounted to 37 nM. Same read-out and setting: next, `O=C(CC(c1ccc(Br)cc1)c1ccccn1)NCCCCc1c[nH]cn1` (stereo not shown): 50 nM; `CN(CCCCc1c[nH]cn1)C(=O)CC(c1ccc(Cl)cc1)c1ccccn1` (stereo not shown): 6.5 nM. With `CN(CCC(c1ccc(Cl)cc1)c1ccccn1)C(=O)CCc1c[nH]cn1` (stereo not shown), the inhibitory constant (Ki) at H3 receptors came to 260 nM; on Histamine H1 receptor, 1000 nM. As for `O=C(NCCC(c1ccc(Cl)cc1)c1ccccn1)OCCc1c[nH]cn1` (stereo not shown), the Ki at H3 receptors came to 260 nM. For `O=C(CC(c1ccc(Cl)cc1)c1ccccn1)NCCc1c[nH]cn1` (stereo not shown), the inhibition constant (Ki) at H3 receptors is 16 nM.

Values taken from patent US6518287B2, “Substituted imidazoles as dual histamine H1 and H3 agonists or antagonists” (Schering Corporation, priority 2000, dated 2003).
